Experimental data taken from PubChem BioAssay (NCI).
Values joined by “and” are separate entries in the source; they are usually repeats but may differ in a detail not shown here. Identical values can stand only once.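 Values below derive from 48-hour exposures of cells grown in 96-well plates, with endpoints linearly interpolated between the two concentrations bracketing the appropriate inhibition level. GI50 marks 50% less growth. At the TGI there is no net growth.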

How the values were obtained:
Assay in all cases: inhibition of tumour cell growth, NCI panel, 48 h
MCF7 breast = system: MCF7 breast
NCI-H522 lung = system: NCI-H522 lung
A498 renal = system: A498 renal
SR leukemia = system: SR leukemia
SF-268 CNS = system: SF-268 CNS
NCI-H460 lung = system: NCI-H460 lung
OVCAR-5 ovarian = system: OVCAR-5 ovarian
SNB-75 CNS = system: SNB-75 CNS
OVCAR-3 ovarian = system: OVCAR-3 ovarian
HS 578T breast = system: HS 578T breast

Compound | GI50 (MCF7 breast) | TGI (MCF7 breast) | GI50 (NCI-H522 lung) | TGI (NCI-H522 lung) | GI50 (A498 renal) | TGI (A498 renal) | GI50 (SR leukemia) | TGI (SR leukemia) | GI50 (SF-268 CNS) | TGI (SF-268 CNS) | GI50 (NCI-H460 lung) | TGI (NCI-H460 lung) | GI50 (OVCAR-5 ovarian) | TGI (OVCAR-5 ovarian) | GI50 (SNB-75 CNS) | TGI (SNB-75 CNS) | GI50 (OVCAR-3 ovarian) | TGI (OVCAR-3 ovarian) | GI50 (HS 578T breast) | TGI (HS 578T breast)
COc1ccc2c(c1)c(-c1nc(-c3cn(C)c4ncccc34)cs1)cn2CCCCN1CCOCC1 | 1.71 µM | 3.67 µM | 1.77 µM | 3.81 µM | 0.164 µM | 1.78 µM | 0.724 µM | 1.98 µM | 1.49 µM | 3.3 µM | 1.19 µM | 2.91 µM | 1.68 µM | 4.03 µM | 0.873 µM | 2.67 µM | 1.62 µM | 3.38 µM | 1.22 µM | 5.46 µM
O=C(O)C1CCCCC1C(=O)Nc1nc2ccccc2[nH]1 (configuration not stated) | – | > 100 µM | – | > 100 µM | – | > 100 µM | – | > 100 µM | – | > 100 µM | – | > 100 µM | – | > 100 µM | – | > 100 µM | – | > 100 µM | – | > 100 µM
C/C=C1\C[C@@H]2C(OC)Nc3cc(O)c(OC)cc3C(=O)N2C1 (some centres not stated) | 0.00692 µM | 2.83 µM | 0.00119 µM | 0.00432 µM | – | 0.0834 µM | – | 0.0602 µM | 0.0027 µM | 0.174 µM and 1.71 µM | 0.00356 µM | 0.598 µM and 1.53 µM | 0.00775 µM | 0.0632 µM and 0.306 µM | 0.00482 µM | 0.0205 µM and 0.0167 µM | 0.00419 µM | 0.0341 µM | – | 0.0575 µM and < 0.0282 µM
Nc1nc(Cl)nc2c1ncn2C1CCC(COP(=O)(O)OP(=O)(O)OP(=O)(O)O)O1 (configuration not stated) | – | > 100 µM | – | > 100 µM | – | > 100 µM | – | > 100 µM | – | > 100 µM | – | > 100 µM | – | 93.3 µM | – | 94.2 µM | – | > 100 µM | – | > 100 µM
COC(=O)c1cc(NC(=O)CN(CCN(CC(=O)O)CC(=O)Nc2ccc(O)c(C(=O)OC)c2)CC(=O)O)ccc1O | 33.5 µM | > 100 µM | 46.4 µM | > 100 µM | 71.7 µM | > 100 µM | 6.06 µM | 48.7 µM | 43.2 µM | > 100 µM | 28.3 µM | > 100 µM | > 100 µM | > 100 µM | 55.3 µM | > 100 µM | > 100 µM | > 100 µM | > 100 µM | > 100 µM
Cc1cccc2c1NC(=O)C2(c1ccc(O)cc1)c1ccc(O)cc1 | 0.0219 µM | > 59.6 µM | 12.6 µM | 33.4 µM | 0.559 µM | 25.1 µM | 14 µM | 45.4 µM | 19.8 µM | > 100 µM | 18.5 µM | 40.8 µM | 12.8 µM | 67.1 µM | 0.0601 µM | 37.5 µM | < 0.01 µM | 14 µM | < 0.01 µM | < 0.0192 µM
COc1ccc(OC)c(-c2cc(C(=O)O)c3cc4ccccc4cc3n2)c1 | – | > 100 µM | – | > 100 µM | – | > 100 µM | – | > 100 µM | – | > 100 µM | – | > 100 µM | – | > 100 µM | – | > 100 µM | – | > 100 µM | – | > 100 µM
CS(=O)(=O)c1ccc(-c2[nH]c3ccc(F)cc3c2/C=N/NC(N)=S)cc1 | 2.1 µM | 18.7 µM | 0.466 µM | 3.75 µM | 0.347 µM | 5.18 µM | 0.329 µM | 32.8 µM | 2.42 µM | > 100 µM | 2.28 µM | > 100 µM | 3.74 µM | > 100 µM | 1.85 µM | > 100 µM | 0.446 µM | 12.1 µM | 0.293 µM | 7.74 µM
O=C1c2ccccc2CCC1(Br)Br | 1.56 µM | 3.89 µM | 0.293 µM | 0.793 µM | 7.69 µM | 20.9 µM | 0.67 µM | 3.9 µM | 4.1 µM | 14.1 µM | 5.28 µM | 18.7 µM | 1.76 µM | 3.25 µM | 3.23 µM | 16.2 µM | 1.75 µM | 3.17 µM | 4.08 µM | > 26.9 µM
CN1CCN(CCCN2c3ccccc3Sc3ccc(C(F)(F)F)cc32)CC1 | 1.77 µM | 3.29 µM and 18.7 µM | 1.87 µM and 4.05 µM and 13 µM | 3.5 µM and 17.8 µM and 26.1 µM | 2.4 µM | 12.9 µM and 29.5 µM and 26.7 µM | 2.72 µM and 2.09 µM and 8.62 µM | 7.95 µM and > 20.4 µM and 27.2 µM | 3.72 µM | 14.3 µM and 25.4 µM and 26.2 µM | 1.99 µM | 4.15 µM and 5.21 µM and 12.1 µM | 1.99 µM | 4.28 µM and 24.9 µM and 23.2 µM | 6.4 µM | 22.7 µM and 16.8 µM and 20.8 µM | 1.93 µM and 6.26 µM and 13.8 µM | 3.76 µM and 20.4 µM and 27 µM | 2.22 µM | 8.41 µM and 14.7 µM and 20.6 µM
O=C(c1ccncc1)N1CCN(C2=NS(=O)(=O)c3ccccc3N2c2ccccc2)CC1 | 7.39 µM | > 100 µM | 5.98 µM | 67 µM | 19.7 µM | 36.9 µM | 0.177 µM | 2.42 µM | 8.37 µM | > 100 µM | 2.59 µM | > 100 µM | 33.4 µM | > 100 µM | 15.5 µM | 53.2 µM | 32.1 µM | > 100 µM | 29.3 µM | 81 µM
COc1ccc(CCN2COc3ccc4ccc(=O)oc4c3C2)cc1OC | – | > 100 µM | – | > 100 µM | – | > 100 µM | – | 50.5 µM | – | > 100 µM | – | > 100 µM | – | > 100 µM | – | > 100 µM | – | > 100 µM | – | > 100 µM
Cc1cc(O)c(O)c(Oc2cc(C)cc(O)c2O)c1 | – | 29.3 µM | – | 34.8 µM | – | > 100 µM | – | 43.5 µM | – | 95 µM | – | 26.6 µM | – | > 100 µM | – | > 100 µM | – | > 100 µM | – | > 100 µM
CS(=O)(=O)N(CC(=O)O)Cc1ccccc1 | – | > 100 µM | – | > 100 µM | – | > 100 µM | – | > 100 µM | – | > 100 µM | – | > 100 µM | – | > 100 µM | – | > 100 µM | – | > 100 µM | – | > 100 µM
